The results in this text go back to patent US20220175682A1, “Siremadlin Succinate” (Novartis AG, priority 2019, published 2022).

What all share (assay type): physicochemical
A short description of data set [1]: Particle size distribution by laser light diffraction (LLD). An excerpt: Values are given in micrometer, measurements done by laser light diffraction (LLD).
A short description of data set [2]: FT4 powder rheometer powder characterization (8-parameter model). Details: MPS-15: unit not given here. To be noted: HDM201-BBA batches, listed as C3. The method, then:
A standard FT4 powder rheometer offers at least 6 powder characterization methods (per measurement cylinder diameter). Those selected for analysis are
25 mm_1C_Split_Rep+VFR_R01;
25 mm_Compressibility_1-15 kPa;
25 mm_Wall Friction_30 kPa.
Each characterization method produces several kind of response parameters (default or manually selectable). A set of complete powder characterizations (at least 22 response parameters per row) were measured for more than 350 different powders and more than 60 different compounds using a standard FT4 powder rheometer and compiled in a database. The various parameters were correlated to the respective filling behavior in order to determine a set of parameters and parameter ranges which is capable of distinguishing and predicting filling behavior of powders.
sBFE: Specific Basic Flow Energy (mJ/g): obtained from BFE (obtained from standard FT4 test platform) divided by the split mass of the sample.
SI: Stability Index, standard variable, dimensionless.
SE: Specific Energy (mJ/g), standard variable
MPS @ 15 kPa: major Principal Stress, standard variable
FF @ 15 kPa: Flow function (dimensionless), from shear cell, standard variable
CBD @ 15 kPa: Consolidated Bulk Density (g/mL), standard variable (from shear cell)
CPS: Compressibility (%), standard variable
WFA: Wall Friction Angle (degree°), standard variable.

Data set [3] is described as follows: Crystal/particle shape, size and bulk density of reference API powders. The text has this: NBU928 is a fumarate salt with a challenging crystallization process. The resulting particles typically have an elongated aspect ratio, crystals are lath shaped up to 400 μm long with strong agglomeration tendency. Such kind of crystal shape give a resulting powder bulk which is not directly processable in any capsule filler equipment. Therefore the API powder was subjected to a Particle Engineering treatment to selectively grow the shot side of the crystal then it was milled down through a pin mill equipment obtaining a quite regular fragmentation, leading to smaller particles with more steady aspect ratio, free of agglomeration, with an average diameter (X50) of about 25 μm.
CDZ173 is a mono-phosphate salt compound. It is characterized by needle shaped crystals with aspect ratio >10, agglomerated/fused rod-like crystals, very low bulk density (always <0.2 g/mL, very often <0.12 g/mL). It is here reported in two different variants (milled and un-milled).

Data set [4] can be described thus: Behaviour of co-crystal in aqueous media.
[5] abbreviates: laser light diffraction, pin-milled HDM201-BBA batches, listed as C3.

For the compound `COc1ncc(-c2nc3c(n2C(C)C)[C@H](c2ccc(Cl)cc2)N(c2cc(Cl)cn(C)c2=O)C3=O)c(OC)n1.O=C(O)CCC(=O)O` [Batch C3], in data set [1] (setting [5]), the X10 was 3 micrometer, the X50 is given as 19 micrometer and the X90 was found to be 58 micrometer. Moreover, in data set [2] (FT4, Group 1), the SI is 1.03 and the sBFE is on record as 8 mJ/g. In data set [2] (FT4, Group 2), this compound displayed a CBD-15 of 0.62 g/mL, an FF-15 of 3.7 and an MPS-15 of 29. Also, the CPS in data set [2] (FT4, Group 3) was found to be 36%.

As for `CCC(=O)N1CC[C@H](Nc2ncnc3c2CN(c2cnc(OC)c(C(F)(F)F)c2)CC3)C1.O=P(O)(O)O` [CDZ173], the bulk density in data set [3] (always) was below 0.2 g/mL; in data set [3] (very often), below 0.12 g/mL. In data set [3] (needle shaped crystals), the “aspect ratio of crystals” value is recorded as above 10.

For the compound `COc1ncc(-c2nc3c(n2C(C)C)[C@H](c2ccc(Cl)cc2)N(c2cc(Cl)cn(C)c2=O)C3=O)c(OC)n1` [HDM201-BBA, (6S)-5-(5-Chloro-1-methyl-2-oxo-1,2-dihydropyridin-3-yl)-6-(4-chlorophenyl)-2-(2,4-dimethoxypyrimidin-5-yl)-1-(propan-2-yl)-5,6-dihydropyrrolo[3,4-d]imidazol-4(1H)-one], the “stability of co-crystal in aqueous media” value in data set [4] is “can disproportionate into the free form in aqueous media”. Also, the “particle size range X90(LLD) found suitable for direct encapsulation” value in data set [1] is 10-200 micrometer.
